US20080113938A1, “ACCELERATOR FOR MINERAL ABSORPTION AND USE THEREOF” (KABUSHIKI KAISHA HAYASHIBARA SEIBUTSU KAGAKU KENKYUJO, priority 2003, published 2008)

Test system: reversed canal sac of intestinum ileum
Assay: Calcium absorption in reversed canal sac, intestinum ileum
Assay type: cell-based, Wister rats
Procedure: Experiment 1 confirmed that cyclic tetrasaccharide promotes mineral absorption in alimentary canal of rat concretely in intestinum ileum or its upper alimentary canal. The following experiment was carried out in order to determine a part of alimentary canal, cyclic tetrasaccharide acts on to promote mineral absorption. Twenty heads of Wister rats (nine week aged male, commercialized by Charlesriver Corporation, Kanagawa, Japan) were bred for three days with a usual solid feed for rats. Under the anesthetization with ether, alimentary canal was taken out from each rat which had been bled from a jugular vein and treated by abdominal operation. Each alimentary canal was divided into jejunum, intestinum ileum and colon/rectum and washed with physiological saline to remove the content. The resulting jejunum specimen, intestinum ileum specimen or colon/rectum specimen was cut off to prepare each midsection sized with about 10 cm in length. The resulting midsection of each specimen was reversed using a glass rod and immersed in a physiological saline babbled with gas consisting of 95% oxygen and 5% carbon dioxide. The resultant was cut into pieces sized with 5 cm in length and each piece was tied with a suture thread at both ends to prepare a reversed canal sac, and injected with about 0.5 ml of an internal sac solution containing 30 mM Tris-HCl buffer (pH7.4), 125 mM sodium chloride, 4 mM potassium chloride, 10 mM glucose and 1.25 mM calcium chloride (dihydrate) with a syringe and weighed. The resulting sac was immersed in an external sac solution (being bubbled with the gas consisting of 95% oxygen and 5% carbon dioxide) containing 50 mM, 100 mM or 200 mM of the same cyclic tetrasaccharide to Experiment 1 in the above solution containing 30 mM Tris-HCl buffer (pH7.4), 125 mM sodium chloride, 4 mM potassium chloride, 10 mM glucose and 1.25 mM calcium chloride (dihydrate). At 15 or 30 minutes after the immersion, the reversed canal sac was taken out from the solution and washed with distilled water. The internal sac solution was collected from the resulting sac and admixed with distilled water to give a final volume of 25 ml. The resulting solution was subjected to a calorimetric measurement of calcium content using “CALCIUM TEST C WAKO™” (commercialized by Wako Pure Chemicals Corporation, Osaka, Japan). As a negative control, an external sac solution without saccharides. As a positive control, an external sac solution containing 200 mM maltitol, reported to have the effect on promoting mineral absorption though intestinal canal, instead of cyclic tetrasaccharide were prepared and carried out in the same manner. Speed of calcium absorption (nmol/min·cm^2) and its relative values defining the value of negative control as 100 were calculated.

[1] = 50 mM saccharide in external sac solution
[2] = 100 mM saccharide in external sac solution
[3] = 200 mM saccharide in external sac solution

Structure (SMILES): OC[C@H]1O[C@@H]2OC[C@H]3O[C@H](O[C@@H]4[C@@H](O)[C@@H](OC[C@H]5O[C@H](O[C@H]([C@H]2O)[C@@H]1O)[C@H](O)[C@@H](O)[C@@H]5O)O[C@H](CO)[C@H]4O)[C@H](O)[C@@H](O)[C@@H]3O [cyclic tetrasaccharide, cyclo{>6)-α-D-glucopyranosyl-(1>3)-α-D-glucopyranosyl-(1>6)-α-D-glucopyranosyl-(1>3)-α-D-glucopyranosyl-(1>}]
- Absorption speed of calcium in alimentary canal sac, Intestinum ileum [1]: 33.6 *※ nmol/min · cm^2
- Relative value of calcium absorption speed (control = 100), Intestinum ileum [1]: (124)
- Absorption speed of calcium in alimentary canal sac, Intestinum ileum [2]: 46.0 *※ nmol/min · cm^2
- Relative value of calcium absorption speed (control = 100), Intestinum ileum [2]: (167)
- Absorption speed of calcium in alimentary canal sac, Intestinum ileum [3]: 52.9 *※ nmol/min · cm^2
- Relative value of calcium absorption speed (control = 100), Intestinum ileum [3]: (195)
- promotion of calcium absorption in intestinum ileum (reversed sac): strongly promoted
